From PubChem BioAssay (NCI)
Values joined by “and” are separate entries in the source; they are usually repeats but may differ in a detail not shown here. Equal entries are not always repeated.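 Dose response: 5 concentrations. Exposure: 48 h. Format: 96-well plates. Endpoint: linear interpolation; highest concentration if not reached. GI50: concentration for 50% inhibition of growth. The concentration for full growth arrest is given as TGI.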

Tests used:
Assay in all cases: inhibition of tumour cell growth, NCI panel, 48 h
HOP-62 NSCLC = test system: HOP-62 NSCLC
EKVX NSCLC = test system: EKVX NSCLC
ACHN renal = test system: ACHN renal
M14 melanoma = test system: M14 melanoma
SW-620 colon = test system: SW-620 colon
SNB-19 CNS = test system: SNB-19 CNS
SN12C renal = test system: SN12C renal
SK-MEL-5 melanoma = test system: SK-MEL-5 melanoma
CAKI-1 renal = test system: CAKI-1 renal
HCT-116 colon = test system: HCT-116 colon
CCRF-CEM leukemia = test system: CCRF-CEM leukemia
NCI-H460 lung = test system: NCI-H460 lung
SNB-75 CNS = test system: SNB-75 CNS
MDA-N = test system: MDA-N
MCF7 breast = test system: MCF7 breast
OVCAR-3 ovarian = test system: OVCAR-3 ovarian

SMILES	TGI (HOP-62 NSCLC)	TGI (EKVX NSCLC)	TGI (ACHN renal) [µM]	TGI (M14 melanoma) [µM]	TGI (SW-620 colon) [µM]	TGI (SNB-19 CNS) [µM]	TGI (SN12C renal) [µM]	TGI (SK-MEL-5 melanoma) [µM]	TGI (CAKI-1 renal) [µM]	TGI (HCT-116 colon) [µM]	TGI (CCRF-CEM leukemia) [µM]	TGI (NCI-H460 lung)	TGI (SNB-75 CNS) [µM]	TGI (MDA-N)	TGI (MCF7 breast) [µM]	TGI (OVCAR-3 ovarian)	GI50 (HOP-62 NSCLC)	GI50 (M14 melanoma)	GI50 (CCRF-CEM leukemia)	GI50 (NCI-H460 lung)
COC(=O)C(C(=O)C(=O)Nc1ccc(C)cc1C)c1nc2ccc([N+](=O)[O-])cc2[nH]c1=O (stereo unspecified)	> 100 µM	> 100 µM	> 100	> 100	> 100	> 100	> 100	> 100	> 100	> 100	> 100	> 100 µM	> 100	–	–	–	–	–	–	–
CNC(=O)C(NC(=O)[C@H](CC(C)C)NC(=O)[C@@H](S)CCN1C(=O)N(C)C(C)(C)C1=O)C(C)(C)C (stereo partly specified)	> 100 µM	> 100 µM	> 100	> 100	> 100	> 100	> 100	> 100	> 100	> 100	–	> 100 µM	–	> 100 µM	> 100	–	–	–	–	–
COc1ccc2c(c1)Cc1c-2[nH]c2cc3c(cc2c1=O)OCO3	45.1 µM	> 100 µM	30.5	51.2	> 100	> 100	> 100	19.4	> 100	23.2	39.1	35 µM	–	–	–	45.9 µM	–	–	–	–
COc1ccc(-c2c(C(C)=O)c(-c3ccccc3)n(C3OC(COC(C)=O)C(OC(C)=O)C(OC(C)=O)C3OC(C)=O)c(=S)c2C#N)cc1O (stereo unspecified)	45.6 µM and > 100 µM	79.3 µM and > 100 µM	> 100	> 100	> 100	> 100	> 100	> 100	> 100	> 100	> 100	37.4 µM and > 100 µM	–	81.5 µM and > 100 µM	> 100	41 µM and > 100 µM	20.1 µM and > 100 µM	36.2 µM and 93 µM	23.6 µM and 70.2 µM	10.8 µM and 43.5 µM
C/C(CC(=O)Nc1ccc(NC(=O)/C(C)=N/NS(=O)(=O)c2ccc(C)cc2)cc1)=N\NS(=O)(=O)c1ccc(C)cc1	> 100 µM	> 100 µM	> 100	> 100	> 100	–	> 100	> 100	> 100	> 100	–	> 100 µM	> 100	–	–	> 100 µM	–	–	–	–
Cc1ccc(N2C(=O)C(O)=C(C(=O)C(C)(C)C)C2c2ccc([N+](=O)[O-])cc2)cc1 (stereo unspecified)	49.2 µM	67.1 µM	45.9	46.2	–	> 100	52.8	30	16.5	29.4	> 100	30.5 µM	–	69.2 µM	37.6	93.5 µM	–	–	–	–
Nc1ccc(S(=O)(=O)c2ccc(N=[N+]([O-])c3ccc(S(=O)(=O)c4ccc(N)cc4)cc3)cc2)cc1	> 54.3 µM	> 100 µM	> 100	> 100	> 100	> 72.3	> 100	> 100	> 100	> 100	> 100	> 100 µM	37.1	–	> 100	> 56 µM	–	–	–	–
Cc1ccc(C(=O)NC(C)C)cc1N=NN(C)C	> 100 µM	> 100 µM	> 100	> 100	> 100	> 100	> 100	> 100	> 100	> 100	–	> 100 µM	–	–	–	> 100 µM	–	–	–	–
C=CC[C@@]1(C#N)C[C@H](C[C@]2(C#N)C[C@H](CCl)OC(C)(C)O2)OC(C)(C)O1	> 100 µM	> 100 µM	> 100	> 100	> 100	> 100	> 100	> 100	> 100	> 100	> 100	> 100 µM	> 100	–	–	> 100 µM	–	–	–	–
Cc1ccc(C(=O)/C=C/N2CCN(c3cccc(C(F)(F)F)c3)CC2)cc1	37.4 µM	41.8 µM	60.5	30.5	49.8	> 100	36.3	29.2	37	30.6	–	47.8 µM	34.7	–	34	28.5 µM	–	–	–	–
N=C(N)Cn1cnc2ccccc21	> 100 µM	> 100 µM	> 100	> 100	> 100	> 100	> 100	> 100	–	–	> 100	> 100 µM	> 100	–	–	> 100 µM	–	–	–	–
COC(=O)NN=C1C(C)(C)C(=NNC(=O)OC)C1(C)C	> 100 µM	> 100 µM	> 100	> 100	> 100	> 100	> 100	> 100	> 100	> 62.5	> 72.3	> 100 µM	> 100	–	–	> 100 µM	–	–	–	–
CCOC(=O)CC(=Nc1cc(C)on1)N(CC)CC	> 100 µM	> 100 µM	> 100	> 100	> 100	> 100	> 100	> 100	> 100	> 100	> 100	> 100 µM	> 100	–	–	> 100 µM	–	–	–	–
FC(F)(F)c1nc2cc(SSc3cc4nc(C(F)(F)F)[nH]c4cc3Cl)c(Cl)cc2[nH]1	> 100 µM	> 100 µM	> 100	> 100	> 100	> 100	> 100	> 100	> 100	> 100	–	> 100 µM	–	–	> 100	> 100 µM	–	–	–	–
CCOc1ccc(C(c2c(O)c3ccccc3oc2=O)c2c(O)c3ccccc3oc2=O)cc1	> 100 µM	> 100 µM	> 100	> 100	> 100	> 100	> 100	> 100	> 100	> 100	> 100	–	–	> 100 µM	> 100	> 100 µM	–	–	–	–
[N-]=[N+]=NC(c1cn(C2CC(O)C(CO)O2)c(=O)[nH]c1=O)C(I)I (stereo unspecified)	> 100 µM	> 100 µM	> 100	> 100	> 100	> 100	> 100	> 100	> 100	> 100	> 100	> 100 µM	–	–	–	> 100 µM	–	–	–	–

SMILES	TGI (HOP-62 NSCLC)	TGI (EKVX NSCLC)	TGI (ACHN renal) [µM]	TGI (M14 melanoma) [µM]	TGI (SW-620 colon) [µM]	TGI (SNB-19 CNS) [µM]	TGI (SN12C renal) [µM]	TGI (SK-MEL-5 melanoma) [µM]	TGI (CAKI-1 renal) [µM]	TGI (HCT-116 colon) [µM]	TGI (CCRF-CEM leukemia) [µM]	TGI (NCI-H460 lung)	TGI (SNB-75 CNS) [µM]	TGI (MDA-N)	TGI (MCF7 breast) [µM]	TGI (OVCAR-3 ovarian)	GI50 (HOP-62 NSCLC)	GI50 (M14 melanoma)	GI50 (CCRF-CEM leukemia)	GI50 (NCI-H460 lung)
N#CCCCCC12C3C(=O)N(c4ccccc4)C(=O)C3ON1O[C@@H]1C(=O)N(c3ccccc3)C(=O)[C@@H]12 (stereo partly specified)	> 100 µM	> 100 µM	> 100	> 100	> 100	> 100	> 100	> 100	> 100	–	> 100	> 100 µM	–	> 100 µM	> 100	> 100 µM	–	–	–	–
CC[S+](C)c1ccc(-c2c3nc(c(-c4ccc([S+](C)CC)cc4)c4ccc([nH]4)c(-c4ccc([S+](C)CC)cc4)c4nc(c(-c5ccc([S+](C)CC)cc5)c5ccc2[nH]5)C=C4)C=C3)cc1 (stereo unspecified)	93.5 µM	94.8 µM	> 100	> 100	> 100	> 100	60.4	> 100	> 100	> 100	> 100	> 100 µM	> 100	–	–	> 100 µM	–	–	–	–
CC(C)(CO)NC(=O)c1cccc(C(=O)NC(C)(C)CO)c1Br	> 100 µM	> 100 µM	> 100	> 100	> 100	> 100	–	> 100	> 100	> 100	–	> 100 µM	> 100	–	> 100	–	–	–	–	–
COc1ccc(CCN2CCOCC2)cc1	> 100 µM	> 100 µM	> 100	> 100	> 100	> 100	> 100	> 100	> 100	> 100	> 100	> 100 µM	–	> 100 µM	> 100	> 100 µM	–	–	–	–
CCCCCCCCC[C@@H]1C[C@@H]2CCC3C(C(=O)OCCCCNC(=O)OCc4ccccc4)=C(C)NC(=N1)N32 (stereo partly specified)	10.3 µM	7.76 µM	12.2	6.97	14.2	29.4	10.7	2.93	14.9	10	8.93	13.3 µM	16.9	–	4.72	14.9 µM	–	–	–	–
Oc1cccc2nc3cc(CN4CCOCC4)c(CN4CCOCC4)cc3nc12	> 100 µM	> 100 µM	> 100	38.9	> 100	> 100	> 100	55.3	> 100	> 100	> 100	> 100 µM	> 100	–	–	> 100 µM	–	–	–	–
CCN1CCC(O)(c2ccc(Cl)c(Cl)c2)C(C(=O)c2ccc(Cl)c(Cl)c2)C1 (stereo unspecified)	33.9 µM	33.6 µM	28.3	30.9	38.7	35.1	35	31.5	32.6	32.4	36.6	43.6 µM	28.5	–	–	27 µM	–	–	–	–
O=C(Nc1cc([N+](=O)[O-])cc([N+](=O)[O-])c1)OC1C2CCC1C1OC1C2 (stereo unspecified)	> 50 µM	> 50 µM	> 50	> 50	> 50	> 50	–	> 50	–	> 50	> 50	> 50 µM	> 50	–	–	> 50 µM	–	–	–	–
O=C(O)C1Cc2ccccc2OC1=O (stereo unspecified)	> 100 µM	> 100 µM	> 100	> 100	> 100	> 100	> 100	> 100	> 100	> 100	–	> 100 µM	–	–	> 100	> 100 µM	–	–	–	–
CC(=O)NNc1nc(C)c(C(/C=C/c2ccc(Cl)cc2)=N/NC(=S)NN)s1	> 100 µM	> 100 µM	> 100	> 100	> 100	> 100	> 100	> 100	> 100	> 100	> 100	> 100 µM	> 100	–	–	–	–	–	–	–
CCOC(=S)SC/C(=N\OC(C)(C)OC)c1ccccc1	> 100 µM	> 100 µM	> 100	> 100	> 100	> 100	> 100	> 100	> 100	77.5	44.5	> 100 µM	–	> 100 µM	> 100	> 100 µM	–	–	–	–
CN(C)C(=S)/N=c1\ssc(=S)n1Cc1ccccn1	> 100 µM	> 100 µM	> 100	> 48.2	> 100	> 100	> 100	> 54.4	> 100	> 100	> 26.2	16.8 µM	> 56.6	–	–	11.3 µM	–	–	–	–
COc1ccc(C2c3c(-c4ccccc4)nn(-c4ccccc4)c3Oc3ncn(N)c(=N)c32)cc1OC (stereo unspecified)	–	4.13 µM	3.69	4.17	> 25	19.9	8.45	–	4.15	3.24	> 100	3.27 µM	3.92	–	3.26	2.95 µM	–	–	–	–
CCN(CC)CCNc1ccc2nnn3c4ccc(OC(C)=O)cc4c(=O)c1c23	12.5 µM	19.3 µM	12.9	21	13.6	> 43.2	15.8	11.2	3.31	> 37.5	3.2	11.5 µM	–	17.8 µM	16.2	22.2 µM	–	–	–	–
CCc1c(-c2coc(CC/C(C)=C/c3ccccc3)n2)oc(OC)c(C)c1=O	> 100 µM	> 100 µM	> 71.4	> 61.4	> 44.7	> 86.3	> 62.2	> 46.9	> 100	> 87.8	> 100	> 100 µM	> 100	–	–	> 100 µM	–	–	–	–
